Assay results taken from US20220177538A1, “CO-AGONISTS AT GLP-1 AND GIP RECEPTORS SUITABLE FOR ORAL DELIVERY” (Novo Nordisk A/S, priority 2020, published 2022).
Like-named read-outs stand apart in the source and are kept apart here. Starred links: 1 amine or outer side, 2 acyl side, 3 side chain; linkers in the order of their positions; H or OH if unused. Non-standard residues stand in square brackets, D forms with d. Residues, ends and D or L forms follow the SMILES beside them. Groups on a side chain read outwards from the residue. *: point of attachment. C20 diacid = O=C(O)CCCCCCCCCCCCCCCCCCC(=O)*; C18 diacid = O=C(O)CCCCCCCCCCCCCCCCC(=O)*; γGlu = O=C(O)[C@H](CCC(=O)[*:2])N[*:1]; εLys = N[C@@H](CCCCN[*:1])C(=O)[*:2]; Aib = CC(C)(N)C(=O)O

How the values were obtained:
[1] = Pharmacokinetic study in dogs after oral dosing of tablets with SNAC; format: in vivo, Beagle dogs
Experimental: The purpose of this example is to determine the half-life and plasma exposure in vivo of the compounds of the present invention after p.o. administration to beagle dogs, i.e. the terminal half-life and concentration of test substance that reaches circulation with time. This is done in a pharmacokinetic (PK) study, where these parameters of the compound in question are determined. By terminal half-life is generally meant the period of time it takes to halve a certain plasma concentration, measured after the initial distribution phase.
The amount of SNAC in the tablet composition was 100-300 mg, the amount of magnesium stearate in the tablet composition was 7.7 mg, and the target amount of each test substance in the tablet composition was 3-4 mg.
Male beagle dogs, 1-7 years of age and weighing 9-17 kg during the study period, were included in the study. The dogs were dosed in a fasting state. The dogs were group housed in pens (12 hours light: 12 hours dark), and fed individually and restrictedly once daily with Royal Canin Medium Adult dog food (Royal Canin Products, China Branch, or Brogaarden A/S, Denmark). The dogs were used for repeated PK studies with a suitable wash-out period between successive dosing. An appropriate acclimatization period was given prior to initiation of the first PK study. All handling, dosing, and blood sampling of the animals were performed by trained and skilled staff. Before the studies, the dogs were fasted overnight and from 0 to 4 hours after dosing. The dogs were restricted to water 1 hour before dosing until 4 hours after dosing, but otherwise had ad libitum access to water during the whole period.
The compositions were administered by a single oral dosing to the dogs in groups of 6-8 dogs. […] The mouth was then closed, and 10 mL of tap water was given by syringe or gavage to facilitate swallowing of the tablet.
One blood sample was drawn before dosing, and additional samples were drawn at predefined time points after dosing for up to 240 hours, such as up to 10 hours, to adequately cover the full plasma concentration-time absorption profile of the test substance. For each blood sample time point, approximately 0.8 mL of whole blood was collected in a 1.5 mL EDTA-coated tube, which was gently turned to mix the sample with EDTA. Blood samples were collected in EDTA buffer (8 mM) and then centrifuged at 4° C. 2000 g for 10 minutes. Plasma was pipetted into Micronic tubes on dry ice, and kept at −20° C. or lower until analysis. Blood samples were taken as appropriate, for example from a venflon in the cephalic vein in the front leg for the first 2 hours and then with syringe from the jugular vein for the rest of the time points. The first few drops were allowed to drain from the venflon to avoid heparin saline from the venflon in the sample.
All blood samples were collected into test tubes containing EDTA for stabilisation and kept on ice until centrifugation. Plasma was separated from whole blood by centrifugation and the plasma was stored at −20° C. or lower until analysis.
The plasma was analysed for test substance using LC-MS (Liquid Chromatography-Mass Spectrometry) as known to the person skilled in the art. […] RP-HPLC separation was achieved using a linear gradient of 1:1 acetonitrile/methanol in 1% aqueous formic acid using either: a Phenomenex Onyx Monolithic C18 column (50×2.0 mm) and a flow rate of 0.8 mL/min at 30° C.; or an Agilent Poroshell 120 SB-C18 column (50×2.1 mm, 2.7 μm) at a flow rate of 0.4 mL/min at 60° C. The mass spectrometer was operated in either positive ionization SIM mode or positive ionization PRM mode.
For each individual animal, a plasma concentration-time profile was analysed by a non-compartmental model in Pharsight Phoenix WinNonLin ver.

human GIP receptor = target: T1, human GIP receptor (Homo sapiens, UniProt P48546); test: In vitro functional potency, CRE luciferase reporter, whole BHK cells (hGIPR); format: cell-based; conditions: BHK CRE luc2P hGIPR cells
T1 construct: expressed in transfected cells; host or cells: BHK (parent line BHKTS13), clone BHK CRE luc2P hGIPR
T1 sequence (P48546 22-466): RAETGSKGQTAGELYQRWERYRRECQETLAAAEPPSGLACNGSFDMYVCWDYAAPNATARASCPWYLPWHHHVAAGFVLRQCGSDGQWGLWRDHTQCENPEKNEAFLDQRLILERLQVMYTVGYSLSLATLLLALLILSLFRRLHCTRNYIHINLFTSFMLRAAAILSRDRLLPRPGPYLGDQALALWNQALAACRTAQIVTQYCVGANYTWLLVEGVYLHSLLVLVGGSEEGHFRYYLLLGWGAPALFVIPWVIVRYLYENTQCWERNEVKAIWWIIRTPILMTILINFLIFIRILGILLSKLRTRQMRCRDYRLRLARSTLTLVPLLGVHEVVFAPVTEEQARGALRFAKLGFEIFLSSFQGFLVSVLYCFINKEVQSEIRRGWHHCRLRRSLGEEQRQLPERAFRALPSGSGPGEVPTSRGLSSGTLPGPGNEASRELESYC
Summary of the method: (§1)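 Potencies are replicate means (n≥2) from non-linear log(agonist) vs response fits of CRE-driven luminescence. Cells were overnight-plated BHK CRE luc2P lines transfected with human GIPR or GLP-1R, 5000/well.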

human GLP-1 receptor = human GLP-1 receptor (Homo sapiens, UniProt P43220); test: In vitro functional potency, CRE luciferase reporter, whole BHK cells (hGLP-1R); format: cell-based; set-up: expressed in transfected cells; host or cells: BHK (parent line BHKTS13), clone BHK CRE luc2P hGLP-1R; conditions: BHK CRE luc2P hGLP-1R cells
Summary of the method: as §1

[2] = oral tablet, SNAC 100 mg, test substance 3 mg, Beagle dogs, arithmetic mean
[3] = 0% HSA, read-out: hGIPR, CRE Luc 0% HSA EC50
[4] = hGIPR, CRE Luc 1% HSA EC50, 1% HSA
[5] = 0% HSA, read-out: hGLP-1R, CRE Luc 0% HSA EC50
[6] = hGLP-1R, CRE Luc 1% HSA EC50, 1% HSA

human GLP-1 receptor, sequence (P43220 24-463): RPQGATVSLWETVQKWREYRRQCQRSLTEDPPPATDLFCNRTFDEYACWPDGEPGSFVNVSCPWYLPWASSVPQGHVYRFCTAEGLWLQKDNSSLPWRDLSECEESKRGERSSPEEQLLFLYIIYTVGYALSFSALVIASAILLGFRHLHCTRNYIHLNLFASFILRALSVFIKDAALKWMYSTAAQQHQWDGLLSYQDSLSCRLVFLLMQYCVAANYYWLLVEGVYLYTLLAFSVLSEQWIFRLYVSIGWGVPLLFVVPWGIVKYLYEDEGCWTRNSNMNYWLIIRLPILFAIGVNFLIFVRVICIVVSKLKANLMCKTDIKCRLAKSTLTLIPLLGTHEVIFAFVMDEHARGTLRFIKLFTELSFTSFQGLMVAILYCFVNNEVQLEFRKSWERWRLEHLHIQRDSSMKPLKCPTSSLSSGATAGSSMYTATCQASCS

Row | SMILES | AUC/Dose [1, 2] [kg·h/L] | Cmax/Dose [1, 2] [kg/L] | Tmax ([1]; dog, in vivo, po) [h] | t1/2 ([1]; dog, in vivo, po) [h] | AUC/Dose ([1]; dog, in vivo, po) [kg·h/L] | Cmax/Dose ([1]; dog, in vivo, po) [kg/L] | Tmax ([1]; male, Beagle, dog, in vivo, po) [h] | half-life ([1]; male, Beagle, dog, in vivo, po) [h] | EC50 (human GIP receptor; [3]) [pM] | EC50 (human GIP receptor; [4]) [pM] | EC50 (human GLP-1 receptor; [5]) [pM] | EC50 (human GLP-1 receptor; [6]) [pM] | Tmax ([1]; male, dog, plasma, oral tablet, SNAC 100 mg, test substance 3 mg, Beagle dogs, median, read-out: Tmax) [h]
1 | CC[C@H](C)[C@H](NC(=O)[C@H](Cc1ccccc1)NC(=O)[C@H](CCC(=O)O)NC(=O)[C@H](CCCNC(=N)N)NC(=O)[C@H](C)NC(=O)[C@H](C)NC(=O)[C@H](CCC(N)=O)NC(=O)[C@H](CCCCNC(=O)[C@@H](N)CCCCNC(=O)[C@@H](N)CCCCNC(=O)CC[C@H](NC(=O)CCCCCCCCCCCCCCCCC(=O)O)C(=O)O)NC(=O)[C@H](CCC(=O)O)NC(=O)[C@H](CC(C)C)NC(=O)[C@H](Cc1ccc(O)cc1)NC(=O)[C@@H](NC(=O)[C@H](CO)NC(=O)[C@H](Cc1ccc(O)cc1)NC(=O)[C@H](CC(=O)O)NC(=O)[C@H](CO)NC(=O)[C@@H](NC(=O)[C@H](Cc1ccccc1)NC(=O)[C@@H](NC(=O)CNC(=O)[C@H](CCC(=O)O)NC(=O)C(C)(C)NC(=O)[C@@H](N)Cc1ccc(O)cc1)[C@@H](C)O)[C@@H](C)O)[C@@H](C)CC)C(=O)N[C@@H](CCC(=O)O)C(=O)N[C@@H](Cc1c[nH]c2ccccc12)C(=O)N[C@@H](CC(C)C)C(=O)N[C@@H](CC(C)C)C(=O)N[C@@H](CCCNC(=N)N)C(=O)NCC(=O)NCC(=O)N1CCC[C@H]1C(=O)N[C@@H](CCC(=O)O)C(=O)N[C@@H](CO)C(=O)NCC(=O)N[C@@H](C)C(=O)N1CCC[C@H]1C(=O)N1CCC[C@H]1C(=O)N1CCC[C@H]1C(=O)N[C@@H](CO)C(=O)O [Compound 13] (H-Y[Aib]EGTFTSDYSIYLEK([εLys-εLys-γGlu-C18 diacid])QAAREFIEWLLRGGPESGAPPPS-OH) | 14.8 | 0.29 |  |  |  |  |  |  |  |  |  |  | 
2 | CC[C@H](C)[C@H](NC(=O)[C@H](Cc1ccccc1)NC(=O)[C@H](CCC(=O)O)NC(=O)[C@H](CCCNC(=N)N)NC(=O)[C@H](C)NC(=O)[C@H](C)NC(=O)[C@H](CCC(N)=O)NC(=O)[C@H](CCCCNC(=O)[C@@H](N)CCCCNC(=O)[C@@H](N)CCCCNC(=O)CC[C@H](NC(=O)CCCCCCCCCCCCCCCCC(=O)O)C(=O)O)NC(=O)[C@H](CCC(=O)O)NC(=O)[C@H](CC(C)C)NC(=O)[C@H](CC(C)C)NC(=O)[C@@H](NC(=O)[C@H](CO)NC(=O)[C@H](Cc1ccc(O)cc1)NC(=O)[C@H](CC(=O)O)NC(=O)[C@H](CO)NC(=O)[C@@H](NC(=O)[C@H](Cc1ccccc1)NC(=O)[C@@H](NC(=O)CNC(=O)[C@H](CCC(=O)O)NC(=O)C(C)(C)NC(=O)[C@@H](N)Cc1ccc(O)cc1)[C@@H](C)O)[C@@H](C)O)[C@@H](C)CC)C(=O)N[C@@H](CC(N)=O)C(=O)N[C@@H](Cc1c[nH]c2ccccc12)C(=O)N[C@@H](CC(C)C)C(=O)N[C@@H](CC(C)C)C(=O)N[C@@H](C)C(=O)NCC(=O)NCC(=O)N1CCC[C@H]1C(=O)N[C@@H](CO)C(=O)N[C@@H](CO)C(=O)NCC(=O)N[C@@H](C)C(=O)N1CCC[C@H]1C(=O)N1CCC[C@H]1C(=O)N1CCC[C@H]1C(=O)N[C@@H](CO)C(=O)O [Compound 15] (H-Y[Aib]EGTFTSDYSILLEK([εLys-εLys-γGlu-C18 diacid])QAAREFINWLLAGGPSSGAPPPS-OH) |  |  | 2.0 | 46 |  |  |  |  |  |  |  |  | 
3 | CC[C@H](C)[C@H](NC(=O)[C@H](Cc1ccccc1)NC(=O)[C@H](CCC(=O)O)NC(=O)[C@H](CCCNC(=N)N)NC(=O)[C@H](C)NC(=O)[C@H](C)NC(=O)[C@H](CCC(N)=O)NC(=O)[C@H](CCCCNC(=O)[C@@H](N)CCCCNC(=O)[C@@H](N)CCCCNC(=O)CC[C@H](NC(=O)CCCCCCCCCCCCCCCCCCC(=O)O)C(=O)O)NC(=O)[C@H](CCC(=O)O)NC(=O)[C@H](CC(C)C)NC(=O)[C@H](Cc1ccc(O)cc1)NC(=O)[C@@H](NC(=O)[C@H](CO)NC(=O)[C@H](Cc1ccc(O)cc1)NC(=O)[C@H](CC(=O)O)NC(=O)[C@H](CO)NC(=O)[C@@H](NC(=O)[C@H](Cc1ccccc1)NC(=O)[C@@H](NC(=O)CNC(=O)[C@H](CCC(=O)O)NC(=O)C(C)(C)NC(=O)[C@@H](N)Cc1ccc(O)cc1)[C@@H](C)O)[C@@H](C)O)[C@@H](C)CC)C(=O)N[C@@H](CC(N)=O)C(=O)N[C@@H](Cc1c[nH]c2ccccc12)C(=O)N[C@@H](CC(C)C)C(=O)N[C@@H](CC(C)C)C(=O)N[C@@H](C)C(=O)NCC(=O)NCC(=O)N1CCC[C@H]1C(=O)N[C@@H](CO)C(=O)N[C@@H](CO)C(=O)NCC(=O)N[C@@H](C)C(=O)N1CCC[C@H]1C(=O)N1CCC[C@H]1C(=O)N1CCC[C@H]1C(=O)N[C@@H](CO)C(=O)O [Compound 16] (H-Y[Aib]EGTFTSDYSIYLEK([εLys-εLys-γGlu-C20 diacid])QAAREFINWLLAGGPSSGAPPPS-OH) |  |  |  |  | 8.6 | 0.21 | 1.3 | 47 | 13.4 | 804 | 3.1 | 321 | 
4 | CC[C@H](C)[C@H](NC(=O)[C@H](Cc1ccccc1)NC(=O)[C@H](CCC(=O)O)NC(=O)[C@H](CCCNC(=N)N)NC(=O)[C@H](C)NC(=O)[C@H](C)NC(=O)[C@H](CCC(N)=O)NC(=O)[C@H](CCCCNC(=O)[C@@H](N)CCCCNC(=O)[C@@H](N)CCCCNC(=O)CC[C@H](NC(=O)CCCCCCCCCCCCCCCCC(=O)O)C(=O)O)NC(=O)[C@H](CCC(=O)O)NC(=O)[C@H](CC(C)C)NC(=O)[C@H](CC(C)C)NC(=O)[C@@H](NC(=O)[C@H](CO)NC(=O)[C@H](Cc1ccc(O)cc1)NC(=O)[C@H](CC(=O)O)NC(=O)[C@H](CO)NC(=O)[C@@H](NC(=O)[C@H](Cc1ccccc1)NC(=O)[C@@H](NC(=O)CNC(=O)[C@H](CCC(=O)O)NC(=O)C(C)(C)NC(=O)[C@@H](N)Cc1ccc(O)cc1)[C@@H](C)O)[C@@H](C)O)[C@@H](C)CC)C(=O)N[C@@H](CC(N)=O)C(=O)N[C@@H](Cc1c[nH]c2ccccc12)C(=O)N[C@@H](CC(C)C)C(=O)N[C@@H](CC(C)C)C(=O)N[C@@H](C)C(=O)NCC(=O)NCC(=O)N1CCC[C@H]1C(=O)N[C@@H](CO)C(=O)N[C@@H](CO)C(=O)O [Compound 20] (H-Y[Aib]EGTFTSDYSILLEK([εLys-εLys-γGlu-C18 diacid])QAAREFINWLLAGGPSS-OH) | 10.8 | 0.21 |  |  |  |  |  | 56 | 7.1 | 247 | 4.2 | 256 | 2
